Measurements reported in patent US20180325914A1, “INCREASING STORAGE OF VITAMIN A, VITAMIN D AND/OR LIPIDS” (Salk Institute for Biological Studies, priority 2014, published 2018).

Tested on: pro-fibrotic gene expression (COL1A1) in LX-2 cells
Test: qRT-PCR of pro-fibrotic gene expression in LX-2 cells
Conditions: 500 nM, 16 hr, equimolar doses, absence or presence of TGFβ1 (5 ng/ml), compared with JQ1

Structure (SMILES) | inhibitory effects on the expression of a wide range of pro-fibrotic genes
COc1ccccc1S(=O)(=O)Nc1ccc2c(c1)CN(C)C(=O)N2 [PFI-1] | comparable inhibitory effects to JQ1
COc1cc2c(cc1-c1c(C)noc1C)ncc1[nH]c(=O)n([C@H](C)c3ccccn3)c12 [I-BET-151] | comparable inhibitory effects to JQ1
